Laboratory results as given in patent US20180221352A1, “3-(1H-PYRROLO[2,3-C]PYRIDIN-2-YL)-1H-PYRAZOLO[3,4-B]PYRIDINES AND THERAPEUTIC USES THEREOF” (Samumed, LLC, priority 2015, published 2018).
pEC50: −log10 of the molar value.

Assays:
Assay type in all cases: cell-based
[1] = test system: Wnt activity (Sp5-Luc reporter, SW480 colon carcinoma cells); experiment: Wnt activity screening assay, Sp5-Luc reporter gene in SW480 cells; details: Homo sapiens; for inhibition at 10 µM: SW480, read-out: percent inhibition at 10 μM; for pEC50: Sp5-Luc reporter, SW480 cells, overnight incubation
How it was run: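 SW480 cells stably carrying a luciferase reporter driven by an Sp5 promoter with eight TCF/LEF sites, plated overnight in 1% FBS medium at 37 °C. Luminescence read with BrightGlo. Signals normalized to DMSO-treated cells; EC50 from four-parameter variable-slope fit.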

[2] = test system: primary human fibroblasts derived from IPF patients (LL29 cells); experiment: Inhibition of fibrotic process, αSMA staining in TGF-β1 treated fibroblasts; details: Fibroblast; for pEC50: 96 h, LL29 cells, TGF-β1 20 ng/mL, 4 days, % αSMA positive cells; for inhibition at 10 µM: read-out: percent inhibition at 10 μM
How it was run: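 LL29 fibroblasts plated in F12 with 1% FBS were stimulated with TGF-β1 alongside compound, with TGF-β1 plus DMSO wells as controls. After 4 days of incubation, SYTOX green was added at 1 μM final for 30 min at room temperature.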

[3] = test system: IL-6; experiment: IL-6 inhibition in LPS-stimulated THP-1 cells (HTRF); details: Homo sapiens; for inhibition at 10 µM: THP-1, read-out: percent inhibition at 10 μM; for pEC50: THP-1 cells, LPS 500 ng/mL, 22 hours, IL6 HTRF
How it was run: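 Serum-reduced (1% FBS, 24 h) THP-1 cells, 5000/well, exposed to compound 2 h at 37 °C, then stimulated with 500 ng/mL LPS for 22 h. Secreted IL-6 measured by HTRF (665/620 ratio), normalised to DMSO; EC50 by four-parameter fit, duplicates.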

[4] = test system: SW480 colon cancer cells; experiment: Cell viability assay (CellTiter-Blue); details: Homo sapiens; for pEC50: 96 h, SW480 cell viability, four days; for inhibition at 10 µM: SW480, 96 h, read-out: percent inhibition at 10 μM
How it was run: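 Fluorescence from resazurin reduced to resorufin by metabolically active cells was the read-out, taken after ~3 h with CellTiter-Blue.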

[5] = test system: primary human mesenchymal stem cells (hMSCs); experiment: Induction of chondrogenesis in hMSCs (nodule count); details: 6 days; for EC50: concentration required to induce 50% levels of chondrogenesis vs TGF-β3, read-out: Conc (nM) of 50% TGF-β3 activity; for Emax: relative to TGF-β3 (10 ng/mL) positive control, read-out: Max. Activity as % TGF-β3 activity
Source text: Representative compounds were screened using primary human mesenchymal stem cells (hMSCs) to determine their ability to induce chondrogenesis (process by which cartilage is developed).
Primary human mesenchymal stem cells (hMSCs) were purchased from Lonza (Walkersville, Md.) and expanded in Mesenchymal Stem Cell Growth Media (Lonza). Cells between passage 3 and 6 were used for the experiments.
To image chondrogenic nodules, the cells were fixed using 4% formaldehyde (Electron Microscopy Sciences), and stained with 2 μg/mL Rhodamine B (Sigma-Aldrich) and 20 μM Nile Red (Sigma-Aldrich) [Johnson K., et. al, A Stem Cell-Based Approach to Cartilage Repair, Science, (2012). […] Number of nodules in each well was normalized to the average of 3 DMSO treated wells on the same plate using Excel (Microsoft Inc.). The normalized averages (fold change over DMSO) of 3 replicate wells for each compound concentration were calculated. Due to solubility limitations of some of the compounds, curve fitting was incomplete leading to inaccurate EC50 determinations.
Using TGF-β3 as a positive control, the concentration of representative compounds required to induce 50% levels of chondrogenesis is reported. In addition, the maximum activity of each compound and the respective dose that each compound reached maximum chondrogenesis activity is reported.

| SMILES | inhibition at 10 µM [1] | pEC50 [1] | pEC50 [2] | inhibition at 10 µM [2] | inhibition at 10 µM [3] | pEC50 [3] | pEC50 [4] | inhibition at 10 µM [4] | EC50 [5] | Emax [5] |
| --- | --- | --- | --- | --- | --- | --- | --- | --- | --- | --- |
| O=C(Nc1cncc(-c2cnc3[nH]nc(-c4cc5c(-c6cccnc6)cncc5[nH]4)c3c2)c1)c1ccccc1 [Compound 95, N-(5-(3-(4-(Pyridin-3-yl)-1H-pyrrolo[2,3-c]pyridin-2-yl)-1H-pyrazolo[3,4-b]pyridin-5-yl)pyridin-3-yl)benzamide] | 0% | < 5.00 | < 5.00 | 0% | 46.5% | < 5.00 | < 5.00 | 8.7% | 100 nM | 155% |
| CC(C)(C)CC(=O)Nc1cncc(-c2cnc3[nH]nc(-c4cc5c(-c6cccnc6)cncc5[nH]4)c3c2)c1 [Compound 100, 3,3-Dimethyl-N-(5-(3-(4-(pyridin-3-yl)-1H-pyrrolo[2,3-c]pyridin-2-yl)-1H-pyrazolo[3,4-b]pyridin-5-yl)pyridin-3-yl)butanamide] | 17.3% | < 5.00 | 5.72 | – | – | 6.19 | < 5.00 | 18.4% | – | 37% |
| c1cncc(-c2cncc3[nH]c(-c4n[nH]c5ncc(-c6cncnc6)cc45)cc23)c1 [Compound 111, 3-(4-(Pyridin-3-yl)-1H-pyrrolo[2,3-c]pyridin-2-yl)-5-(pyrimidin-5-yl)-1H-pyrazolo[3,4-b]pyridine] | 11.9% | < 5.00 | 5.76 | – | – | 5.18 | < 5.00 | 8.6% | – | 24% |
| Nc1cncc(-c2cnc3[nH]nc(-c4cc5c(-c6ccncc6)cncc5[nH]4)c3c2)c1 [Compound 115, 5-(3-(4-(Pyridin-4-yl)-1H-pyrrolo[2,3-c]pyridin-2-yl)-1H-pyrazolo[3,4-b]pyridin-5-yl)pyridin-3-amine] | 13.9% | < 5.00 | 5.45 | – | – | 6.39 | < 5.00 | 17.8% | – | 32% |
| CN(C)c1cncc(-c2cnc3[nH]nc(-c4cc5c(-c6ccncc6)cncc5[nH]4)c3c2)c1 [Compound 119, N,N-Dimethyl-5-(3-(4-(pyridin-4-yl)-1H-pyrrolo[2,3-c]pyridin-2-yl)-1H-pyrazolo[3,4-b]pyridin-5-yl)pyridin-3-amine] | 2.5% | < 5.00 | < 5.00 | 0% | 40.7% | < 5.00 | < 5.00 | 8.9% | 10 nM | 191% |
| CC(C)(C)C(=O)Nc1cncc(-c2cnc3[nH]nc(-c4cc5c(-c6ccncc6)cncc5[nH]4)c3c2)c1 [Compound 120, N-(5-(3-(4-(Pyridin-4-yl)-1H-pyrrolo[2,3-c]pyridin-2-yl)-1H-pyrazolo[3,4-b]pyridin-5-yl)pyridin-3-yl)pivalamide] | 5% | < 5.00 | 5.57 | – | – | 6.71 | < 5.00 | 13.5% | – | 34% |
| CCCCC(=O)Nc1cncc(-c2cnc3[nH]nc(-c4cc5c(-c6ccncc6)cncc5[nH]4)c3c2)c1 [Compound 131, N-(5-(3-(4-(Pyridin-4-yl)-1H-pyrrolo[2,3-c]pyridin-2-yl)-1H-pyrazolo[3,4-b]pyridin-5-yl)pyridin-3-yl)pentanamide] | 3.4% | < 5.00 | < 5.00 | 27.9% | 24.5% | < 5.00 | < 5.00 | 18.9% | 10 nM | 70% |
| O=C(Nc1cncc(-c2cnc3[nH]nc(-c4cc5c(-c6ccncc6)cncc5[nH]4)c3c2)c1)C1CCC1 [Compound 133, N-(5-(3-(4-(Pyridin-4-yl)-1H-pyrrolo[2,3-c]pyridin-2-yl)-1H-pyrazolo[3,4-b]pyridin-5-yl)pyridin-3-yl)cyclobutanecarboxamide] | 7% | < 5.00 | 5.31 | – | 43.3% | < 5.00 | < 5.00 | 18.9% | – | 43% |
| FC1(F)CCN(Cc2cncc(-c3cnc4[nH]nc(-c5cc6c(-c7ccncc7)cncc6[nH]5)c4c3)c2)C1 [Compound 138, 5-(5-((3,3-Difluoropyrrolidin-1-yl)methyl)pyridin-3-yl)-3-(4-(pyridin-4-yl)-1H-pyrrolo[2,3-c]pyridin-2-yl)-1H-pyrazolo[3,4-b]pyridine] | 40.8% | < 5.00 | 6.06 | – | – | 6.31 | < 5.00 | 24.1% | – | 37% |
| c1cc2cc(-c3n[nH]c4ncc(-c5cncc(CN6CCCC6)c5)cc34)[nH]c2cn1 [Compound 266, 5-(5-(Pyrrolidin-1-ylmethyl)pyridin-3-yl)-3-(1H-pyrrolo[2,3-c]pyridin-2-yl)-1H-pyrazolo[3,4-b]pyridine] | – | 5.31 | < 5.00 | 12.9% | 47.6% | < 5.00 | 5.43 | – | – | 36% |
| O=C(Nc1cncc(-c2cnc3[nH]nc(-c4cc5ccncc5[nH]4)c3c2)c1)C1CCCCC1 [Compound 275, N-(5-(3-(1H-Pyrrolo[2,3-c]pyridin-2-yl)-1H-pyrazolo[3,4-b]pyridin-5-yl)pyridin-3-yl)cyclohexanecarboxamide] | – | 5.45 | 5.77 | – | – | 6.40 | 5.46 | – | 2700 nM | 291% |
| CC(C)CC(=O)Nc1cncc(-c2cnc3[nH]nc(-c4cc5c(-c6cc(F)cc(CNS(C)(=O)=O)c6)cncc5[nH]4)c3c2)c1 [Compound 478, N-(5-(3-(4-(3-Fluoro-5-(methylsulfonamidomethyl)phenyl)-1H-pyrrolo[2,3-c]pyridin-2-yl)-1H-pyrazolo[3,4-b]pyridin-5-yl)pyridin-3-yl)-3-methylbutanamide] | – | 5.59 | < 5.00 | 21.2% | – | 5.93 | 5.14 | – | – | 46% |
| CS(=O)(=O)NCc1cc(F)cc(-c2cncc3[nH]c(-c4n[nH]c5ncc(-c6cccnc6)cc45)cc23)c1 [Compound 480, N-(3-Fluoro-5-(2-(5-(pyridin-3-yl)-1H-pyrazolo[3,4-b]pyridin-3-yl)-1H-pyrrolo [2,3-c]pyridin-4-yl)benzyl)methane sulfonamide] | – | 5.84 | 5.65 | – | – | 6.63 | 5.44 | – | 2700 nM | 66% |
| CCNCc1cncc(-c2cnc3[nH]nc(-c4cc5c(-c6cc(F)cc(CNS(C)(=O)=O)c6)cncc5[nH]4)c3c2)c1 [Compound 482, N-(3-(2-(5-(5-((Ethylamino)methyl)pyridin-3-yl)-1H-pyrazolo[3,4-b]pyridin-3-yl)-1H-pyrrolo[2,3-c]pyridin-4-yl)-5-fluorobenzyl)methanesulfonamide] | 12.8% | < 5.00 | 5.30 | – | 47.9% | < 5.00 | < 5.00 | 7% | – | 43% |
